In US20230016424A1, “HYBRID AMIDE DERIVATIVES OF AMPHOTERICIN B” (The Board of Trustees of the University of Illinois, priority 2019, published 2023):

Each molecule was assayed on C. albicans SN250, C. albicans, C. krusei, C. glabrata, C. tropicalis, A. fumigatus 91, 1163, 1100 (assay: Average MIC over the tested strains). Conditions: Table 7, C16 amide AmB variants.
Type: cell-based

Compound	MIC (Average Minimum Inhibition Concentration) [µM]
CC1C=CC=CC=CC=CC=CC=CC=CC(OC2OC(C)C(O)C(N)C2O)CC2OC(O)(CC(O)CC(O)C(O)CCC(O)CC(O)CC(=O)OC(C)C(C)C1O)CC(O)C2C(=O)NC1C(CO)OC(n2cnc3c(N)ncnc32)C1O (mixture of isomers) [EA]	0.422
CC1C=CC=CC=CC=CC=CC=CC=CC(OC2OC(C)C(O)C(N)C2O)CC2OC(O)(CC(O)CC(O)C(O)CCC(O)CC(O)CC(=O)OC(C)C(C)C1O)CC(O)C2C(=O)NC1CCCC1O (mixture of isomers) [EV]	0.500
CC1C=CC=CC=CC=CC=CC=CC=CC(OC2OC(C)C(O)C(N)C2O)CC2OC(O)(CC(O)CC(O)C(O)CCC(O)CC(O)CC(=O)OC(C)C(C)C1O)CC(O)C2C(=O)NC1C(O)OC(CO)C(O)C1O (mixture of isomers) [FK]	0.211
COC1OC(CO)C(O)C(NC(=O)C2C(O)CC3(O)CC(O)CC(O)C(O)CCC(O)CC(O)CC(=O)OC(C)C(C)C(O)C(C)C=CC=CC=CC=CC=CC=CC=CC(OC4OC(C)C(O)C(N)C4O)CC2O3)C1O (mixture of isomers) [FO]	0.258
CCC(O)CNC(=O)C1C(O)CC2(O)CC(O)CC(O)C(O)CCC(O)CC(O)CC(=O)OC(C)C(C)C(O)C(C)C=CC=CC=CC=CC=CC=CC=CC(OC3OC(C)C(O)C(N)C3O)CC1O2 (mixture of isomers) [FX]	0.313
CC1C=CC=CC=CC=CC=CC=CC=CC(OC2OC(C)C(O)C(N)C2O)CC2OC(O)(CC(O)CC(O)C(O)CCC(O)CC(O)CC(=O)OC(C)C(C)C1O)CC(O)C2C(=O)NC1C(O)COC(O)C1O (mixture of isomers) [GE]	0.320
CC1C=CC=CC=CC=CC=CC=CC=CC(OC2OC(C)C(O)C(N)C2O)CC2OC(O)(CC(O)CC(O)C(O)CCC(O)CC(O)CC(=O)OC(C)C(C)C1O)CC(O)C2C(=O)NC1C(O)OC(CO)C(O)C1O (mixture of isomers) [GL]	0.344
CC1C=CC=CC=CC=CC=CC=CC=CC(OC2OC(C)C(O)C(N)C2O)CC2OC(O)(CC(O)CC(O)C(O)CCC(O)CC(O)CC(=O)OC(C)C(C)C1O)CC(O)C2C(=O)NCCN(C)C (centres unmarked) [DA]	0.352
CC1C=CC=CC=CC=CC=CC=CC=CC(OC2OC(C)C(O)C(N)C2O)CC2OC(O)(CC(O)CC(O)C(O)CCC(O)CC(O)CC(=O)OC(C)C(C)C1O)CC(O)C2C(=O)NC(CO)CO (centres unmarked) [DD]	0.375
CC1C=CC=CC=CC=CC=CC=CC=CC(OC2OC(C)C(O)C(N)C2O)CC2OC(O)(CC(O)CC(O)C(O)CCC(O)CC(O)CC(=O)OC(C)C(C)C1O)CC(O)C2C(=O)NCC1OC(n2cnc3c(=O)[nH]c(N)nc32)C(O)C1O (centres unmarked) [DM]	0.391
CC1C=CC=CC=CC=CC=CC=CC=CC(OC2OC(C)C(O)C(N)C2O)CC2OC(O)(CC(O)CC(O)C(O)CCC(O)CC(O)CC(=O)OC(C)C(C)C1O)CC(O)C2C(=O)NCCn1ncnn1 (centres unmarked) [DN]	0.391
CC1C=CC=CC=CC=CC=CC=CC=CC(OC2OC(C)C(O)C(N)C2O)CC2OC(O)(CC(O)CC(O)C(O)CCC(O)CC(O)CC(=O)OC(C)C(C)C1O)CC(O)C2C(=O)NCCOCCN (centres unmarked) [DP]	0.391
COC(=O)C(CCCNC(=N)N)NC(=O)C1C(O)CC2(O)CC(O)CC(O)C(O)CCC(O)CC(O)CC(=O)OC(C)C(C)C(O)C(C)C=CC=CC=CC=CC=CC=CC=CC(OC3OC(C)C(O)C(N)C3O)CC1O2 (centres unmarked) [DQ]	0.406
CC1C=CC=CC=CC=CC=CC=CC=CC(OC2OC(C)C(O)C(N)C2O)CC2OC(O)(CC(O)CC(O)C(O)CCC(O)CC(O)CC(=O)OC(C)C(C)C1O)CC(O)C2C(=O)NC1CCC(N)CC1 (centres unmarked) [DU]	0.406
CC1C=CC=CC=CC=CC=CC=CC=CC(OC2OC(C)C(O)C(N)C2O)CC2OC(O)(CC(O)CC(O)C(O)CCC(O)CC(O)CC(=O)OC(C)C(C)C1O)CC(O)C2C(=O)NCCNC(=N)N (centres unmarked) [DV]	0.406
CC1C=CC=CC=CC=CC=CC=CC=CC(OC2OC(C)C(O)C(N)C2O)CC2OC(O)(CC(O)CC(O)C(O)CCC(O)CC(O)CC(=O)OC(C)C(C)C1O)CC(O)C2C(=O)N(CO)CCO (centres unmarked) [DW]	0.419
CC1C=CC=CC=CC=CC=CC=CC=CC(OC2OC(C)C(O)C(N)C2O)CC2OC(O)(CC(O)CC(O)C(O)CCC(O)CC(O)CC(=O)OC(C)C(C)C1O)CC(O)C2C(=O)NC1COC1 (centres unmarked) [DX]	0.422

Compound	MIC (Average Minimum Inhibition Concentration) [µM]
CC1C=CC=CC=CC=CC=CC=CC=CC(OC2OC(C)C(O)C(N)C2O)CC2OC(O)(CC(O)CC(O)C(O)CCC(O)CC(O)CC(=O)OC(C)C(C)C1O)CC(O)C2C(=O)NCC(C)(C)C(N)=O (centres unmarked) [EC]	0.422
CC1C=CC=CC=CC=CC=CC=CC=CC(OC2OC(C)C(O)C(N)C2O)CC2OC(O)(CC(O)CC(O)C(O)CCC(O)CC(O)CC(=O)OC(C)C(C)C1O)CC(O)C2C(=O)NCCS(C)(=O)=O (centres unmarked) [EE]	0.422
CC1C=CC=CC=CC=CC=CC=CC=CC(OC2OC(C)C(O)C(N)C2O)CC2OC(O)(CC(O)CC(O)C(O)CCC(O)CC(O)CC(=O)OC(C)C(C)C1O)CC(O)C2C(=O)NCC1OC(O)C(O)C(O)C1O (centres unmarked) [EF]	0.430
CC1C=CC=CC=CC=CC=CC=CC=CC(OC2OC(C)C(O)C(N)C2O)CC2OC(O)(CC(O)CC(O)C(O)CCC(O)CC(O)CC(=O)OC(C)C(C)C1O)CC(O)C2C(=O)NCB(O)O (centres unmarked) [EG]	0.430
CC1C=CC=CC=CC=CC=CC=CC=CC(OC2OC(C)C(O)C(N)C2O)CC2OC(O)(CC(O)CC(O)C(O)CCC(O)CC(O)CC(=O)OC(C)C(C)C1O)CC(O)C2C(=O)NC1CC1 (centres unmarked) [EI]	0.438
CC1C=CC=CC=CC=CC=CC=CC=CC(OC2OC(C)C(O)C(N)C2O)CC2OC(O)(CC(O)CC(O)C(O)CCC(O)CC(O)CC(=O)OC(C)C(C)C1O)CC(O)C2C(=O)NCCC#N (centres unmarked) [EK]	0.438
C=CCNC(=O)C1C(O)CC2(O)CC(O)CC(O)C(O)CCC(O)CC(O)CC(=O)OC(C)C(C)C(O)C(C)C=CC=CC=CC=CC=CC=CC=CC(OC3OC(C)C(O)C(N)C3O)CC1O2 (centres unmarked) [EL]	0.453
COCC(C)NC(=O)C1C(O)CC2(O)CC(O)CC(O)C(O)CCC(O)CC(O)CC(=O)OC(C)C(C)C(O)C(C)C=CC=CC=CC=CC=CC=CC=CC(OC3OC(C)C(O)C(N)C3O)CC1O2 (centres unmarked) [EM]	0.469
CC1C=CC=CC=CC=CC=CC=CC=CC(OC2OC(C)C(O)C(N)C2O)CC2OC(O)(CC(O)CC(O)C(O)CCC(O)CC(O)CC(=O)OC(C)C(C)C1O)CC(O)C2C(=O)NCC(C)(C)F (centres unmarked) [EN]	0.469
CC1C=CC=CC=CC=CC=CC=CC=CC(OC2OC(C)C(O)C(N)C2O)CC2OC(O)(CC(O)CC(O)C(O)CCC(O)CC(O)CC(=O)OC(C)C(C)C1O)CC(O)C2C(=O)NCCNS(C)(=O)=O (centres unmarked) [EO]	0.469
CC1C=CC=CC=CC=CC=CC=CC=CC(OC2OC(C)C(O)C(N)C2O)CC2OC(O)(CC(O)CC(O)C(O)CCC(O)CC(O)CC(=O)OC(C)C(C)C1O)CC(O)C2C(=O)NCCCS(N)(=O)=O (centres unmarked) [EP]	0.484
CC1C=CC=CC=CC=CC=CC=CC=CC(OC2OC(C)C(O)C(N)C2O)CC2OC(O)(CC(O)CC(O)C(O)CCC(O)CC(O)CC(=O)OC(C)C(C)C1O)CC(O)C2C(=O)NCCCNC(N)=O (centres unmarked) [EQ]	0.484
CC1C=CC=CC=CC=CC=CC=CC=CC(OC2OC(C)C(O)C(N)C2O)CC2OC(O)(CC(O)CC(O)C(O)CCC(O)CC(O)CC(=O)OC(C)C(C)C1O)CC(O)C2C(=O)NCCN1CCOC1=O (centres unmarked) [ER]	0.484
CC1C=CC=CC=CC=CC=CC=CC=CC(OC2OC(C)C(O)C(N)C2O)CC2OC(O)(CC(O)CC(O)C(O)CCC(O)CC(O)CC(=O)OC(C)C(C)C1O)CC(O)C2C(=O)NC1CNC1=O (centres unmarked) [ES]	0.484
CC1C=CC=CC=CC=CC=CC=CC=CC(OC2OC(C)C(O)C(N)C2O)CC2OC(O)(CC(O)CC(O)C(O)CCC(O)CC(O)CC(=O)OC(C)C(C)C1O)CC(O)C2C(=O)NC1COCC1O (centres unmarked) [EU]	0.500
CC1C=CC=CC=CC=CC=CC=CC=CC(OC2OC(C)C(O)C(N)C2O)CC2OC(O)(CC(O)CC(O)C(O)CCC(O)CC(O)CC(=O)OC(C)C(C)C1O)CC(O)C2C(=O)NCCOC(F)F (centres unmarked) [EW]	0.500
CC1C=CC=CC=CC=CC=CC=CC=CC(OC2OC(C)C(O)C(N)C2O)CC2OC(O)(CC(O)CC(O)C(O)CCC(O)CC(O)CC(=O)OC(C)C(C)C1O)CC(O)C2C(=O)NCCCCO (centres unmarked) [EY]	0.500

Same assay, conditions: Table 12, C16 amides of C2'epiAmB

Compound	Average MIC [µM]
CC1C=CC=CC=CC=CC=CC=CC=CC(OC2OC(C)C(O)C(N)C2O)CC2OC(O)(CC(O)CC(O)C(O)CCC(O)CC(O)CC(=O)OC(C)C(C)C1O)CC(O)C2C(=O)NC1COCC1O (centres unmarked) [BP]	1.250
CNC(=O)C1C(O)CC2(O)CC(O)CC(O)C(O)CCC(O)CC(O)CC(=O)OC(C)C(C)C(O)C(C)C=CC=CC=CC=CC=CC=CC=CC(OC3OC(C)C(O)C(N)C3O)CC1O2 (centres unmarked) [BS]	1.734
CC1C=CC=CC=CC=CC=CC=CC=CC(OC2OC(C)C(O)C(N)C2O)CC2OC(O)(CC(O)CC(O)C(O)CCC(O)CC(O)CC(=O)OC(C)C(C)C1O)CC(O)C2C(=O)NCCN (centres unmarked) [BT]	1.750
CC1C=CC=CC=CC=CC=CC=CC=CC(OC2OC(C)C(O)C(N)C2O)CC2OC(O)(CC(O)CC(O)C(O)CCC(O)CC(O)CC(=O)OC(C)C(C)C1O)CC(O)C2C(=O)NCCC(N)=O (centres unmarked) [BU]	2.563
CC1C=CC=CC=CC=CC=CC=CC=CC(OC2OC(C)C(O)C(N)C2O)CC2OC(O)(CC(O)CC(O)C(O)CCC(O)CC(O)CC(=O)OC(C)C(C)C1O)CC(O)C2C(=O)NC1CC1 (centres unmarked) [BV]	3.063
CC1C=CC=CC=CC=CC=CC=CC=CC(OC2OC(C)C(O)C(N)C2O)CC2OC(O)(CC(O)CC(O)C(O)CCC(O)CC(O)CC(=O)OC(C)C(C)C1O)CC(O)C2C(=O)NC1CCC1 (centres unmarked) [BW]	5.563
COC(=O)C(Cc1c[nH]cn1)NC(=O)C1C(O)CC2(O)CC(O)CC(O)C(O)CCC(O)CC(O)CC(=O)OC(C)C(C)C(O)C(C)C=CC=CC=CC=CC=CC=CC=CC(OC3OC(C)C(O)C(N)C3O)CC1O2 (centres unmarked) [BX]	9.073
